Bridge positions count the residues as written; N and C are the ends. Square brackets hold non-standard residues; d marks the D form. Peptide text beside a SMILES is read from it. 2Nal = N[C@@H](Cc1ccc2ccccc2c1)C(=O)O; Thp = NC1(C(=O)O)CCOCC1
target: Interleukin-23 subunit alpha/receptor (UniProt Q5VWK5); test: ELISA assay for specific human IL-23R inhibitors
Experimental: (§1) A 384-well plate was coated with 50 µl/well of human IL-23 at a final concentration of […] and incubated overnight at 4°C. The wells were washed 3 times with […] wash buffer and blocked with […] blocking buffer for 60 minutes at room temperature and washed again. 20 µl of serially diluted test peptides was added to each well and subsequently 20 µl of recombinant human IL-23R-Fc chimera at final concentration of […]. The plate was incubated for 60 minutes at room temperature. After the wells were washed, bound IL-23R-Fc was detected with goat anti-hu- IgG 1 -HRP antibody. Signals were visualized with QuantaBlu Fluorogenic Peroxidase Substrate.

Structure (SMILES) | IC50
COc1ccc(C[C@@H]2NC(=O)[C@H](C)NC(=O)[C@H](CCC(N)=O)NC(=O)[C@H](Cc3c[nH]c4ccccc34)NC(=O)[C@H]([C@@H](C)O)NC(=O)[C@H](CC(N)=O)NC(=O)[C@H](NC(C)=O)CCCCNC(=O)C[C@@H](C(=O)N[C@@H](CC(N)=O)C(=O)N[C@@H](CC(N)=O)C(N)=O)NC(=O)C3(CCOCC3)NC(=O)[C@H](Cc3ccc4ccccc4c3)NC2=O)cc1 [WO2025051920, Example 51] (Ac-[dK]NTWQAY(Me)[2Nal][Thp]DNN-NH2; lactam 1-10) | 0.78 nM

target: T1, Interleukin-23 subunit alpha/receptor (UniProt Q9NPF7+Q5VWK5); test: ELISA assay for specific human IL-23R inhibitors
T1 sequence (Q9NPF7 whole entry): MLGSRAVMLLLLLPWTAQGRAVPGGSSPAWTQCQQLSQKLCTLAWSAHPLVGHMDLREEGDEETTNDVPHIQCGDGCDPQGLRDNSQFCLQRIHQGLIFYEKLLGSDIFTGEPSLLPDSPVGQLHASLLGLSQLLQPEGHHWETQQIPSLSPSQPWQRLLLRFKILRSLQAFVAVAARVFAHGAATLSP
T1 sequence (Q5VWK5 whole entry): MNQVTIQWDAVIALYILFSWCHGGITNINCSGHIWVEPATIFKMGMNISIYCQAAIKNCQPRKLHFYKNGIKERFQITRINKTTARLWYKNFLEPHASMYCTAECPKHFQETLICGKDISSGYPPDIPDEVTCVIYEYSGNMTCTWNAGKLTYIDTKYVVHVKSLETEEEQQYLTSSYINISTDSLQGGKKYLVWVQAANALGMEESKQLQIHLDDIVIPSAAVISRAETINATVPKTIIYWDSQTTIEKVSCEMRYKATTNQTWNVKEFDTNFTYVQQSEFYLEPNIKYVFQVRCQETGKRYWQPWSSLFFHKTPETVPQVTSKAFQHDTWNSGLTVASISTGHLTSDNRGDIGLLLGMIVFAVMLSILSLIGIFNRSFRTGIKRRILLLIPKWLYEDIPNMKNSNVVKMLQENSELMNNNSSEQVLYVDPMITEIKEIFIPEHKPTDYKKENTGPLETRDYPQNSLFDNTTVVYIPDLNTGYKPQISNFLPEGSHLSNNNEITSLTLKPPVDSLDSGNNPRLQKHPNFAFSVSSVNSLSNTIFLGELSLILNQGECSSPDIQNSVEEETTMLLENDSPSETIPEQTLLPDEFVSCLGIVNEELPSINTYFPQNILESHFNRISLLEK
Experimental: as §1

Structure (SMILES) | IC50
COc1ccc(C[C@@H]2NC(=O)[C@H](CCCNC(=N)N)NC(=O)[C@H](CCC(N)=O)NC(=O)[C@H](Cc3cn(C)c4ccccc34)NC(=O)[C@H]([C@@H](C)O)NC(=O)[C@H](CC(N)=O)NC(=O)[C@H](NC(C)=O)CCCCNC(=O)C[C@@H](C(=O)N[C@@H](CC(N)=O)C(=O)N[C@@H](CC(N)=O)C(=O)O)NC(=O)[C@H](CC(C)C)NC(=O)[C@H](Cc3cccc4ccccc34)NC2=O)cc1 [WO2025051920, Example 23] | 12 nM
COc1ccc(C[C@@H]2NC(=O)[C@H](CCCNC(=N)N)NC(=O)[C@H](CCC(N)=O)NC(=O)[C@H](Cc3cn(C)c4ccccc34)NC(=O)[C@H]([C@@H](C)O)NC(=O)[C@H](CC(N)=O)NC(=O)[C@H](NC(C)=O)CCCCNC(=O)C[C@@H](C(=O)N[C@@H](CC(N)=O)C(=O)N[C@@H](CC(N)=O)C(=O)O)NC(=O)[C@H](CC(C)C)NC(=O)[C@H](Cc3ccc4ccccc4c3)NC2=O)cc1 [WO2025051920, Example 24] | 1.21 nM
COc1ccc(C[C@@H]2NC(=O)[C@H](C)NC(=O)[C@H](CCC(N)=O)NC(=O)[C@H](Cc3c[nH]c4ccccc34)NC(=O)C([C@@H](C)O)NC(=O)[C@H](CC(N)=O)NC(=O)C(N)CCCCNC(=O)C[C@H](C(=O)N[C@@H](CC(N)=O)C(=O)N[C@@H](CC(N)=O)C(=O)O)NC(=O)C(C)(C)NC(=O)[C@H](Cc3ccc4ccccc4c3)NC2=O)cc1 (stereo partly drawn) [WO2025051920, Example 44] | 4.66 nM

The next lines start with the values.

IC50 | Structure (SMILES)
1.55 nM | COc1ccc(C[C@@H]2NC(=O)[C@H](CCCNC(=N)N)NC(=O)[C@H](CCC(N)=O)NC(=O)[C@H](Cc3c[nH]c4ccccc34)NC(=O)C([C@@H](C)O)NC(=O)[C@H](CC(N)=O)NC(=O)[C@H](NC(C)=O)CCCCNC(=O)C[C@H](C(=O)N[C@@H](CC(N)=O)C(=O)N[C@@H](CC(N)=O)C(=O)O)NC(=O)C(C)(C)NC(=O)[C@H](Cc3ccc4ccccc4c3)NC2=O)cc1 (stereo partly drawn) [WO2025051920, Example 3]
1.95 nM | COc1ccc(C[C@@H]2NC(=O)[C@H](CCCNC(=N)N)NC(=O)[C@H](CCC(N)=O)NC(=O)[C@H](Cc3c[nH]c4ccccc34)NC(=O)C([C@@H](C)O)NC(=O)[C@H](CC(N)=O)NC(=O)[C@H](NC(C)=O)CCCCNC(=O)CC[C@H](C(=O)N[C@@H](CC(N)=O)C(=O)N[C@@H](CC(N)=O)C(=O)O)NC(=O)C(C)(C)NC(=O)[C@H](Cc3ccc4ccccc4c3)NC2=O)cc1 (stereo partly drawn) [WO2025051920, Example 5]
3.55 nM | COc1ccc(C[C@@H]2NC(=O)[C@H](CCCNC(=N)N)NC(=O)[C@H](CCC(N)=O)NC(=O)[C@H](Cc3c[nH]c4ccccc34)NC(=O)C([C@@H](C)O)NC(=O)[C@H](CC(N)=O)NC(=O)C(NC(C)=O)CCCCNC(=O)C[C@H](C(=O)N[C@@H](CC(N)=O)C(=O)N[C@@H](CC(N)=O)C(=O)O)NC(=O)C(C)(C)NC(=O)[C@H](Cc3cccc4ccccc34)NC2=O)cc1 (stereo partly drawn) [WO2025051920, Example 9]
1.04 nM | COc1ccc(C[C@@H]2NC(=O)[C@H](CCCNC(=N)N)NC(=O)[C@H](CCC(N)=O)NC(=O)[C@H](Cc3c[nH]c4ccccc34)NC(=O)C([C@@H](C)O)NC(=O)[C@H](CC(N)=O)NC(=O)C(NC(C)=O)CCCCNC(=O)C[C@H](C(=O)N[C@@H](CC(N)=O)C(=O)N[C@@H](CC(N)=O)C(=O)O)NC(=O)C(C)(C)NC(=O)[C@H](Cc3ccc4ccccc4c3)NC2=O)cc1 (stereo partly drawn) [WO2025051920, Example 15]
